Reference: patent publication US20260152487A1 (Sitryx Therapeutics Limited, priority 2021, published 2026)
pEC50: −log10 of the molar value.

Target: T1, recombinant human PKM2 (Homo sapiens, UniProt P14618)
T1 construct: His (N); purchased R&D Systems
Assay: Human PKM2 activation assay (Kinase-Glo Plus luminescent detection of generated ATP)
Type: biochemical
Details: for Emax: percentage activation normalised to DMSO vehicle (LOW) and 5 μM TEPP-46 (HIGH), read-out: hPKM2 Emax; for pEC50: recombinant human PKM2 activation, 4-parameter logistic fit, read-out: hPKM2 EC50
Experimental: Compound activation of recombinant human PKM2 pyruvate kinase activity was determined by biochemical assay. N-terminal His-tagged hPKM2 was sourced from R&D Systems and its substrates phosphoenolpyruvate (PEP) and ADP from Sigma-Aldrich and 2Bscientific Ltd, respectively. The Kinase-Glo® Plus luminescence assay was from Promega. All other reagents were from Sigma-Aldrich. Test Compounds were prepared as 10 mM DMSO stocks and dilution series prepared in DMSO for direct dilution into Assay Buffer comprising 50 mM imidazole, 50 mM KCl, 7 mM MgCl2, 0.01% Tween20, 0.05% BSA (pH 7.2).
Human PKM2 was diluted into Assay Buffer comprising 50 mM imidazole, 50 mM KCl, 7 mM MgCl2, 0.01% Tween20, 0.05% BSA (pH 7.2) to a final concentration of […]. Enzyme-Assay Buffer mix was dispensed into a 384-well shallow-well white-walled plate (PerkinElmer) and Test Compounds added by acoustic dispense (Echo®, Labcyte Inc.).
After 60 minutes' incubation on an orbital shaker (300 rpm, 26° C.), enzyme activity was quantified by the luminescent detection of generated ATP. Kinase-Glo® Plus reagent was added to each well and the plates incubated for a further 15 minutes on an orbital shaker in the dark (300 rpm, 26° C.) before luminescence measurement on a plate reader (PHERAstar® FSX, BMG Labtech).
Percentage activation was calculated by normalising […] signals to plate LOW (DMSO vehicle) and HIGH (5 μM TEPP-46) controls. EC50 and Emax values were determined from 4-parameter logistic fits of compound concentration-response curves.

T1 sequence (P14618 2-531 limits assumed): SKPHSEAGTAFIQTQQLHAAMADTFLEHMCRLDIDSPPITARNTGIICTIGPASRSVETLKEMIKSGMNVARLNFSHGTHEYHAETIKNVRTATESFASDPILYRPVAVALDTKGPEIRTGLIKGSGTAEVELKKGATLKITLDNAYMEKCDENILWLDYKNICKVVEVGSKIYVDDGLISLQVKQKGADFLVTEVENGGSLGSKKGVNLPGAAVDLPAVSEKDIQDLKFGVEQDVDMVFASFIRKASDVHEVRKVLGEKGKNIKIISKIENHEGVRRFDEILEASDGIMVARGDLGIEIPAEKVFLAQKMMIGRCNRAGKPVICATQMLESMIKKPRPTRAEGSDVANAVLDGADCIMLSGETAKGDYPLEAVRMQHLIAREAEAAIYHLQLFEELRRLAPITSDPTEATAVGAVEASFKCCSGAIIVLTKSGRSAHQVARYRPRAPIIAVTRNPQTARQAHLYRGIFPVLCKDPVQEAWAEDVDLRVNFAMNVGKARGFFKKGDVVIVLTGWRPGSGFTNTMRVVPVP

| SMILES | Emax | pEC50 |
| --- | --- | --- |
| Cn1ccc(Cn2ncc3cc(S(=N)(=O)c4ccccc4)ccc3c2=O)n1 (stereo not drawn) [Example 262, 2-((1-methyl-1H-pyrazol-3-yl)methyl)-6-(phenylsulfonimidoyl)phthalazin-1(2H)-one] | 110% | 6.19 |
| COc1ccc(Cn2ncc3cc(S(=O)(=O)c4cn[nH]c4)ccc3c2=O)nc1C [Example 291, 6-(1H-pyrazol-4-ylsulfonyl)-2-((5-methoxy-6-methylpyridin-2-yl)methyl)phthalazin-1(2H)-one] | 82.8% | 6.01 |
| Cc1[nH]nc(Cn2ncc3cc(S(=O)(=O)c4cnn(C)c4)ccc3c2=O)c1C [Example 348] | 94.3% | 7.29 |
| O=c1c2ccc(S(=O)(=O)c3cc[nH]n3)cc2cnn1Cc1ccc2occc2n1 [Example 335] | 113% | 7.85 |
| O=c1c2ccc(S(=O)(=O)c3cnn(CCO)c3)cc2cnn1Cc1cccc(C2CC2)n1 [Example 307] | 94.6% | 7.14 |
| COc1ccc(Cn2ncc3cc([S@@](=N)(=O)c4ccc(OC(F)F)cc4)ccc3c2=O)cn1 (single isomer, unassigned) [Example 136] | 97.2% | 7.33 |
| COc1ccc(S(=O)(=O)c2ccc3c(=O)n(Cc4cccc(N)c4)ncc3c2)cn1 [Example 149, 2-(3-aminobenzyl)-6-((6-methoxypyridin-3-yl)sulfonyl)phthalazin-1(2H)-one] | 100% | 7.26 |
| COc1ccc(S(=O)(=O)c2ccc3c(=O)n(Cc4cc[nH]n4)ncc3c2)nc1 [Example 257, 2-((1H-pyrazol-3-yl)methyl)-6-((5-methoxypyridin-2-yl)sulfonyl)phthalazin-1(2H)-one] | 99.3% | 6.79 |
| COc1ccc(Cn2ncc3cc(S(=O)(=O)c4ccc5c(c4)CC(C)O5)ccc3c2=O)cn1 (stereo not drawn) [Example 167, 2-((6-methoxypyridin-3-yl)methyl)-6-((2-methyl-2,3-dihydrobenzofuran-5-yl)sulfonyl)phthalazin-1(2H)-one] | 95.5% | 7.18 |
| Cn1ccc(Cn2ncc3cc(S(=O)(=O)c4ccccc4)cc(F)c3c2=O)n1 [Example 245, 8-fluoro-2-((1-methyl-1H-pyrazol-3-yl)methyl)-6-(phenylsulfonyl)phthalazin-1(2H)-one] | 103% | 7.27 |
| Cn1cc(S(=O)(=O)c2ccc3c(=O)n(Cc4ccn(C5CC5)n4)ncc3c2)cn1 [Example 236, 2-((1-cyclopropyl-1H-pyrazol-3-yl)methyl)-6-((1-methyl-1H-pyrazol-4-yl)sulfonyl)phthalazin-1(2H)-one] | 116% | 6.92 |
| O=c1c2ccc(S(=O)(=O)c3cn[nH]c3)cc2cnn1Cc1cnc2c(c1)CCO2 [Example 293, 6-(1H-pyrazol-4-ylsulfonyl)-2-((2,3-dihydrofuro[2,3-b]pyridin-5-yl)methyl)phthalazin-1(2H)-one] | 67.5% | 6.07 |
| Cc1c[nH]nc1Cn1ncc2cc(S(=O)(=O)c3ccc4c(c3)CCO4)ccc2c1=O [Example 208, 6-((2,3-dihydrobenzofuran-5-yl)sulfonyl)-2-((4-methyl-1H-pyrazol-3-yl)methyl)phthalazin-1(2H)-one] | 104% | 7.48 |
| COc1ccc(Cn2ncc3cc(S(=O)(=O)c4ccc5c(c4)CC(C)(C)O5)ccc3c2=O)cn1 [Example 166, 6-((2,2-dimethyl-2,3-dihydrobenzofuran-5-yl)sulfonyl)-2-((6-methoxypyridin-3-yl)methyl)phthalazin-1(2H)-one] | 99.4% | 6.88 |
| COc1ccc(Cn2ncc3cc(S(=N)(=O)c4ccccc4)ccc3c2=O)cn1 (racemic) [Example 131, 2-((6-methoxypyridin-3-yl)methyl)-6-(phenylsulfonimidoyl)phthalazin-1(2H)-one] | 99.7% | 6.52 |
| O=c1c2ccc(S(=O)(=O)c3cnn(C(F)F)c3)cc2cnn1Cc1ccc2c(n1)CCO2 [Example 340] | 111% | 7.53 |
| Cc1cc(Cn2ncc3cc(S(=O)(=O)c4cn[nH]c4)ccc3c2=O)nn1C [Example 310] | 107% | 6.82 |
| O=c1c2ccc(S(=O)(=O)c3ccc4[nH]ccc4c3)cc2cnn1Cc1cc[nH]n1 [Example 226, 6-((1H-indol-5-yl)sulfonyl)-2-((1H-pyrazol-3-yl)methyl)phthalazin-1(2H)-one] | 114% | 6.45 |

Now from value to molecule:

| Emax | pEC50 | SMILES |
| --- | --- | --- |
| 116% | 6.21 | Nc1cccc(Cn2ncc3cc(S(=O)(=O)c4cccnc4)ccc3c2=O)c1 [Example 121, 2-(3-aminobenzyl)-6-(pyridin-3-ylsulfonyl)phthalazin-1(2H)-one] |
| 114% | 7.46 | N=[S@@](=O)(c1cn[nH]c1)c1ccc2c(=O)n(Cc3ccc4c(n3)CCO4)ncc2c1 (stereo in doubt) [Example 364] |
| 106% | 6.08 | O=c1c2ccc(S(=O)(=O)c3ccccc3)cc2cnn1Cc1n[nH]cc1CO [Example 26, 2-((4-(hydroxymethyl)-1H-pyrazol-3-yl)methyl)-6-(phenylsulfonyl)phthalazin-1(2H)-one] |
| 95.3% | 7.72 | COc1ccc(Cn2ncc3cc(S(=O)(=O)c4ccc5c(c4)CCO5)ccc3c2=O)cn1 [Example 126, 6-((2,3-dihydrobenzofuran-5-yl)sulfonyl)-2-((6-methoxypyridin-3-yl)methyl)phthalazin-1(2H)-one] |
| 104% | 6.62 | Cn1ccc(S(=O)(=O)c2ccc3c(=O)n(Cc4cc[nH]n4)ncc3c2)n1 [Example 306] |
| 106% | 7.55 | Cn1ccc(S(=O)(=O)c2ccc3c(=O)n(Cc4ccc5occc5n4)ncc3c2)n1 [Example 336] |
| 72.7% | 6.34 | COc1ncccc1Cn1ncc2cc(S(=O)(=O)c3cn[nH]c3)ccc2c1=O [Example 284, 6-((1H-pyrazol-4-yl)sulfonyl)-2-((2-methoxypyridin-3-yl)methyl)phthalazin-1(2H)-one] |
| 103% | 6.23 | COc1ccc(S(=O)(=O)c2ccc3c(=O)n(Cc4cnccc4O)ncc3c2)cc1 [Example 107, 2-((4-hydroxypyridin-3-yl)methyl)-6-(4-methoxyphenylsulfonyl)phthalazin-1(2H)-one] |
| 103% | 6.60 | O=c1c2ccc(S(=O)(=O)c3ccccc3)c(NCCO)c2cnn1Cc1cccnc1O [Example 247, 5-((2-hydroxyethyl)amino)-2-((2-hydroxypyridin-3-yl)methyl)-6-(phenylsulfonyl)phthalazin-1(2H)-one] |
| 92.3% | 6.71 | Cc1c[nH]nc1Cn1ncc2cc(S(=O)(=O)c3cnn(C)c3)ccc2c1=O [Example 313] |
| 102% | 6.29 | Cc1cccc(Cn2ncc3cc(S(=O)(=O)c4cnn(C5CNC5)c4)ccc3c2=O)n1 [Example 276, 6-((1-(azetidin-3-yl)-1H-pyrazol-4-yl)sulfonyl)-2-((6-methylpyridin-2-yl)methyl)phthalazin-1(2H)-one] |
| 104% | 6.82 | COc1cccc(Cn2ncc3cc(S(=O)(=O)c4cn[nH]c4)ccc3c2=O)n1 [Example 294, 6-((1H-pyrazol-4-yl)sulfonyl)-2-((6-methoxypyridin-2-yl)methyl)phthalazin-1(2H)-one] |
| 113% | 6.42 | COCCn1cc(S(=O)(=O)c2ccc3c(=O)n(Cc4cc[nH]n4)ncc3c2)cn1 [Example 281, 2-((1H-pyrazol-3-yl)methyl)-6-((1-(2-methoxyethyl)-1H-pyrazol-4-yl)sulfonyl)phthalazin-1(2H)-one] |
| 78.1% | 6.33 | CCn1nccc1Cn1ncc2cc(S(=O)(=O)c3ccccc3)ccc2c1=O [Example 83, 2-((1-ethyl-1H-pyrazol-5-yl)methyl)-6-(phenylsulfonyl)phthalazin-1(2H)-one] |
| 93.9% | 6.73 | Cc1cccc(S(=O)(=O)c2ccc3c(=O)n(Cc4cc[nH]n4)ncc3c2)n1 [Example 288, 2-((1H-pyrazol-3-yl)methyl)-6-((6-methylpyridin-2-yl)sulfonyl)phthalazin-1(2H)-one] |
| 56.8% | 6.68 | COc1ccc(Cn2ncc3cc(S(=O)(=O)c4cccc(C(N)=O)c4)ccc3c2=O)cn1 [Example 161, 3-(2-((6-methoxypyridin-3-yl)methyl)-1-oxo-1,2-dihydrophthalazin-6-ylsulfonyl)benzamide] |
| 77.2% | 7.80 | COc1ccc(Cn2ncc3cc(S(=O)(=O)c4ccc(OC(F)F)cc4)ccc3c2=O)cn1 [Example 153, 6-(4-(difluoromethoxy)phenylsulfonyl)-2-((6-methoxypyridin-3-yl)methyl)phthalazin-1(2H)-one] |
| 93% | 6.46 | CC(O)c1cccc(Cn2ncc3cc(S(=O)(=O)c4cnn(C)c4)ccc3c2=O)n1 (stereo not drawn) [Example 274, 2-((6-(1-hydroxyethyl)pyridin-2-yl)methyl)-6-((1-methyl-1H-pyrazol-4-yl)sulfonyl)phthalazin-1(2H)-one] |
